From ChEMBL document CHEMBL1201862, “PubChem BioAssay data set” (2004)
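Values below derive from 48-hour exposures of cells grown in 96-well plates, with endpoints linearly interpolated between the two concentrations bracketing the appropriate inhibition level. GI50: concentration for 50% inhibition of growth.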 Active and inactive are the calls of the source. No stated cut-off is given here; in the data, active = GI50 up to about 1.1 µM and inactive = higher.

Assays:
Assay in all cases: inhibition of tumour cell growth, NCI panel, 48 h
[1] = test system: ACHN
[2] = test system: CCRF-CEM
[3] = test system: DU-145
[4] = test system: HOP-92
[5] = test system: HT-29
[6] = test system: Hs-578T
[7] = test system: KM12
[8] = test system: MCF7
[9] = test system: MDA-MB-231
[10] = test system: Malme-3M
[11] = test system: NCI-H460
[12] = test system: NCI-H522
[13] = test system: OVCAR-3
[14] = test system: OVCAR-4
[15] = test system: SF-268
[16] = test system: SF-539
[17] = test system: SK-MEL-28
[18] = test system: SK-MEL-5
[19] = test system: SR
[20] = test system: U-251

Row | SMILES | GI50 [1] | GI50 [2] | GI50 [3] | GI50 [4] | GI50 [5] | GI50 [6] | GI50 [7] | GI50 [8] | GI50 [9] | GI50 [10] | GI50 [11] | GI50 [12] | GI50 [13] | GI50 [14] | GI50 [15] | GI50 [16] | GI50 [17] | GI50 [18] | GI50 [19] | GI50 [20]
1 | O=C(O)c1ccc(C(=O)Nc2cccc3ccccc23)c(C(=O)O)c1 | > 100 µM (inactive) | > 100 µM (inactive) | > 100 µM (inactive) | > 100 µM (inactive) | > 100 µM (inactive) | > 100 µM (inactive) | > 100 µM (inactive) | > 100 µM (inactive) | > 100 µM (inactive) | > 100 µM (inactive) | > 100 µM (inactive) | > 100 µM (inactive) | > 100 µM (inactive) | > 100 µM (inactive) | > 100 µM (inactive) | > 100 µM (inactive) | > 100 µM (inactive) | > 100 µM (inactive) | > 100 µM (inactive) | > 100 µM (inactive)
2 | CC(C)(C)c1ccc(O)c(C[N+](C)(C)C)c1 | > 100 µM (inactive) | > 100 µM (inactive) | > 100 µM (inactive) | > 100 µM (inactive) | > 100 µM (inactive) | > 100 µM (inactive) | > 100 µM (inactive) | > 100 µM (inactive) | > 100 µM (inactive) | > 100 µM (inactive) | > 100 µM (inactive) | 34.3 µM (inactive) | 68.9 µM (inactive) | > 100 µM (inactive) | > 100 µM (inactive) | > 100 µM (inactive) | > 100 µM (inactive) | 49.4 µM (inactive) | > 100 µM (inactive) | > 100 µM (inactive)
3 | O=CC(=C(I)I)c1ccccc1 | 3 µM (inactive) | 0.2 µM (active) | 7.45 µM (inactive) | 2.57 µM (inactive) | 3.04 µM (inactive) | 2.83 µM (inactive) | 3.87 µM (inactive) | 3.11 µM (inactive) | 2.87 µM (inactive) | 2.15 µM (inactive) | 17.1 µM (inactive) | 2 µM (inactive) | 1.98 µM (inactive) | 2.03 µM (inactive) | 2.25 µM (inactive) | 2.35 µM (inactive) | 2.64 µM (inactive) | 4.07 µM (inactive) | 0.197 µM (active) | 3.58 µM (inactive)
4 | OC1COC(OCc2ccccc2)C(O)C1O (stereo not given) | > 100 µM (inactive) | > 100 µM (inactive) | > 100 µM (inactive) | > 100 µM (inactive) | > 100 µM (inactive) | > 100 µM (inactive) | > 100 µM (inactive) | > 100 µM (inactive) | > 100 µM (inactive) | > 100 µM (inactive) | > 100 µM (inactive) | > 100 µM (inactive) | > 100 µM (inactive) | > 100 µM (inactive) | > 100 µM (inactive) | > 100 µM (inactive) | > 100 µM (inactive) | > 100 µM (inactive) | > 100 µM (inactive) | > 100 µM (inactive)
5 | CCCCCCC(=O)OC[n+]1ccc(-c2c(COC(=O)NC(C)C)c(COC(=O)NC(C)C)c3n2CCC3)cc1 | 41 µM (inactive) | 24.6 µM (inactive) | > 82.4 µM (inactive) | 63.5 µM (inactive) | > 100 µM (inactive) | > 100 µM (inactive) | > 100 µM (inactive) | 45.8 µM (inactive) | > 71.3 µM (inactive) | > 64.7 µM (inactive) | 35.6 µM (inactive) | 57 µM (inactive) | > 100 µM (inactive) | > 100 µM (inactive) | 48.6 µM (inactive) | 45.1 µM (inactive) | > 100 µM (inactive) | > 100 µM (inactive) | 10 µM (inactive) | > 80.4 µM (inactive)
6 | CCN(CC)CCn1ncc2c3c(=O)c4cccnc4n(CCN(CC)CC)c3ccc21 | 5.21 µM (inactive) | 4.98 µM (inactive) | > 10 µM (inactive) | > 10 µM (inactive) | 3.51 µM (inactive) | 8.67 µM (inactive) | 6.19 µM (inactive) | 3.22 µM (inactive) | > 10 µM (inactive) | > 10 µM (inactive) | 6.18 µM (inactive) | > 10 µM (inactive) | 8.11 µM (inactive) | 4.44 µM (inactive) | 7.43 µM (inactive) | 9.27 µM (inactive) | > 10 µM (inactive) | > 10 µM (inactive) | 6.98 µM (inactive) | > 10 µM (inactive)
7 | CCNCCCNc1c2ccccc2nc2ccccc12 | 0.136 µM (active) | 0.514 µM (active) | 0.525 µM (active) | 0.469 µM (active) | 0.219 µM (active) | 0.653 µM (active) | 0.396 µM (active) | 0.193 µM (active) | 0.612 µM (active) | 0.406 µM (active) | 0.196 µM (active) | 0.183 µM (active) | 0.326 µM (active) | 0.478 µM (active) | 0.472 µM (active) | 0.279 µM (active) | 0.401 µM (active) | 0.375 µM (active) | 0.285 µM (active) | 0.435 µM (active)
